# Columns and labels:
# [1] = tested on: Staphylococcus sp.; test: in vitro antibacterial evaluation, MIC by broth dilution; assay type: cell-based; details: broth dilution, 18 hours at 35° C.
# Outline: (§1)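 Broth dilution per NCCLS M7-A2 in Mueller-Hinton II medium, inoculum 5×10^5 CFU/mL, antibiotic range 64-0.06 μg/mL. MIC taken as lowest concentration inhibiting growth; Gram-positive panel includes recent clinical isolates resistant to methicillin, penicillin and/or vancomycin.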
# [2] = tested on: Streptococcus sp.; test: as above; assay type: cell-based; details: broth dilution, 18 hours at 35° C.
# Outline: as §1
# [3] = tested on: Escherichia coli; test: as above; assay type: cell-based; details: 18 hours at 35° C.
# Outline: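 Broth dilution per NCCLS standard M7-A2 in Muller-Hinton II […], with an inoculum of 5×10^5 CFU/mL and antibiotic spanning 64-0.06 μg/mL. The MIC is the lowest concentration that inhibits growth of the organism.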
# [4] = tested on: Enterococcus sp.; test: as above; assay type: cell-based; details: broth dilution, 18 hours at 35° C.
# Outline: as §1
# [5] = tested on: Staphylococcus aureus-SMITH (GC 4543); test: acute lethal infection in mice; assay type: in vivo; details: acute lethal infection, female CD-1 mice, intraperitoneal challenge, intravenous 30 min. after infection, 7 day survival
# Outline: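 Female CD-1 mice (20±2 g) got an intraperitoneal bacterial challenge lethal to untreated controls within 24–48 hr. Compound was dosed intravenously 30 min after infection, five mice per dose. ED50 was calculated from 7-day survival pooled across 3 tests.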
smiles,measurement,setting,value
"CC(C)CC(=O)OC1C(O)C(CO)OC(OC2C(CO)OC(Oc3ccc(CC4NC(=O)C(C(C)c5ccc(Cl)cc5)NC(=O)CNC(=O)C(CO)NC(=O)C(C(O)C5CNC(=N)N5C5OC(CO)C(O)C(O)C5O)NC(=O)C(C(O)C5CNC(=N)N5)NC4=O)cc3)C(O)C2O)C1O (stereo not drawn) [Example 262b, Cyclo[glycyl-4-chloro-β-methylphenylalanyl-O-[4-O-[3-O-(3-methylbutanoyl)hexopyranosyl]-hexopyranosyl]tyrosyl-3-(2-iminoimidazolidin-4-yl)seryl-3-(3-hexopyranosyl-2-iminoimidazolidin-4-yl)serylseryl]]",MIC Coagulase Negative Staphylococcus (GC 4547),[1],2 µg/mL
same,MIC Coagulase Negative Staphylococcus (GC 4548),[1],1 µg/mL
same,MIC Coagulase Negative Staphylococcus (GC 4549),[1],1 µg/mL
same,MIC Coagulase Negative Staphylococcus (GC 4551),[1],2 µg/mL
same,MIC Staphylococcus aureus (ATCC 29213),[1],4 µg/mL
same,MIC Staphylococcus aureus (GC 1131),[1],4 µg/mL
same,MIC Staphylococcus aureus (GC 4541),[1],2 µg/mL
same,MIC Staphylococcus aureus (GC 4542),[1],2 µg/mL
same,MIC Staphylococcus aureus (GC 4544),[1],4 µg/mL
same,MIC Staphylococcus aureus (GC 4545),[1],2 µg/mL
same,MIC Staphylococcus aureus-SMITH (GC 4543),[1],1 µg/mL
same,MIC Staphylococcus haemolyticus (GC 4546),[1],2 µg/mL
same,MIC Staphylococcus aureus (ATCC 29213),[1]; strain ATCC 29213,4 µg/mL
same,MIC Staphylococcus aureus (GC 1131),[1]; strain GC 1131,4 µg/mL
same,MIC Staphylococcus aureus (GC 4541),[1]; strain GC 4541,2 µg/mL
same,MIC Staphylococcus aureus (GC 4542),[1]; strain GC 4542,2 µg/mL
same,MIC Staphylococcus aureus (GC 4544),[1]; strain GC 4544,4 µg/mL
same,MIC Staphylococcus aureus (GC 4545),[1]; strain GC 4545,2 µg/mL
same,MIC Staphylococcus haemolyticus (GC 4546),[1]; strain GC 4546,2 µg/mL
same,MIC Coagulase Negative Staphylococcus (GC 4547),[1]; strain GC 4547,2 µg/mL
same,MIC Coagulase Negative Staphylococcus (GC 4548),[1]; strain GC 4548,1 µg/mL
same,MIC Coagulase Negative Staphylococcus (GC 4549),[1]; strain GC 4549,1 µg/mL
same,MIC Coagulase Negative Staphylococcus (GC 4551),[1]; strain GC 4551,2 µg/mL
same,MIC Staphylococcus aureus-SMITH (GC 4543),[1]; strain SMITH GC 4543,1 µg/mL
same,MIC Streptococcus agalactiae (GC 4564),[2]; strain GC 4564,1 µg/mL
same,MIC Streptococcus pyogenes (ID-3187),[2]; strain ID-3187,1 µg/mL
same,MIC Escherichia coli (ATCC 25922),[3]; Escherichia coli (ATCC 25922),>64 µg/mL
same,MIC Escherichia coli (GC 4559),[3]; Escherichia coli (GC 4559),>64 µg/mL
same,MIC Escherichia coli (GC 4560),[3]; Escherichia coli (GC 4560),1 µg/mL
same,MIC Enterococcus avium (GC 4558),[4]; Enterococcus avium (GC 4558),16 µg/mL
same,MIC Enterococcus faecalis (ATCC 29212),[4]; Enterococcus faecalis (ATCC 29212),32 µg/mL
same,MIC Enterococcus faecalis (GC 4553),[4]; Enterococcus faecalis (GC 4553),32 µg/mL
same,MIC Enterococcus faecalis (GC 4554),[4]; Enterococcus faecalis (GC 4554),32 µg/mL
same,MIC Enterococcus faecium (GC 2243),[4]; Enterococcus faecium (GC 2243),16 µg/mL
same,MIC Enterococcus faecium (GC 4556),[4]; Enterococcus faecium (GC 4556),16 µg/mL
same,MIC Enterococcus faecium (GC 4557),[4]; Enterococcus faecium (GC 4557),2 µg/mL
same,MIC Enterococcus faecalis (ATCC 29212),[4]; strain ATCC 29212,32 µg/mL
same,MIC Enterococcus faecalis (GC 2242),[4]; strain GC 2242,16 µg/mL
same,MIC Enterococcus faecium (GC 2243),[4]; strain GC 2243,16 µg/mL
same,MIC Enterococcus faecalis (GC 4552),[4]; strain GC 4552,32 µg/mL
same,MIC Enterococcus faecalis (GC 4553),[4]; strain GC 4553,32 µg/mL
same,MIC Enterococcus faecalis (GC 4554),[4]; strain GC 4554,32 µg/mL
same,MIC Enterococcus faecium (GC 4556),[4]; strain GC 4556,16 µg/mL
same,MIC Enterococcus faecium (GC 4557),[4]; strain GC 4557,2 µg/mL
same,MIC Enterococcus avium (GC 4558),[4]; strain GC 4558,16 µg/mL
same,"median effective dose (ED50), Staphylococcus aureus-SMITH (GC 4543)",[5],1.22 mg/kg
